Measured values: US20140018316A1, “OPHTHALMIC PHARMACEUTICAL COMPOSITION” (Hayashibara Co., Ltd., priority 2005, published 2014)

Test system: pig lens
Test: Swelling and cloudiness of extracted pig lenses soaked in test or control solutions (traumatic cataract model)
Parameters: key to degree of cloudiness in the lens (relative value): relative gray-scale density; uninjured lens in saline at start = 10
Method: Using an injured pig lens employed as a model for traumatic cataract, the influence of cyclic tetrasaccharide on the cloudiness in the lens was experimented as follows: A test solution was previously prepared by dissolving a cyclic tetrasaccharide crystal, penta hydrate, which had been prepared by the method in the later described Reference for Example 2, in physiological saline into a physiological saline containing 100 mM cyclic tetrasaccharide. As a positive control, a physiological saline containing 100 mM α,α-trehalose, a reagent grade specimen, commercialized by Hayashibara Biochemical Laboratories, Inc., Okayama, Japan, was used; andasanegativecontrol, physiological saline was used. Two milliliter aliquots of any one of the above three kinds of aqueous solutions were added to every two wells in respective commercialized 24-well culture plates. In one of the two wells containing the same kind of solution in each plate was placed a pig lens, which had been obtained from a slaughter-house, extracted by incision within three hours after the obtention and without injuring, and washing the extracted lens with physiological saline; while in the other of the two wells was placed a pig lens, which had been prepared by the same procedure as in the above but injured with a 27-gauge injection needle (commercialized by Terumo Co., Tokyo, Japan) to form an injured line, about one millimeter in length. These lens were allowed to stand at ambient temperature and macroscopically and microscopically observed their change in the degree of cloudiness and in the shape of swelling, etc. This experiment was run in a triplicate manner, and the macroscopic and microscopic observations were done just after (0), 1 hour, 2 hours, 6 hours, and 24 hours after the lenses were placed in the wells, and then observed daily over 28 days. A similar experiment was further conducted using a physiological saline containing 75 mM, 50 mM, 20 mM, 10 mM, or 1 mM cyclic tetrasaccharide and a lens that had not been injured with the injection needle. The degree of cloudiness in each lens, observed with “STEREOMICROSCOPE SZX12”, a product name of a stereomicroscope commercialized by Olympus Co., Tokyo, Japan, was expressed by photographing a transmitted light image of each lens with “PENGUIN 150CL”, a digital camera commercialized by Pixela Co., Tokyo, Japan, capturing the transmitted image by a computer using a view finder commercialized by Olympus Co., Tokyo, Japan, and expressing numerically the degree of light and shade of the captured image as a gray-scale using “Scion Image for Windows Beta 4.0.2”, a software commercialized by Scion Co., Maryland, U.S.A., to obtain a mean density for each lens. The time course change in the degree of cloudiness in each lens placed in each solution was expressed with a relative value, regarding the degree of cloudiness, just after the lens free of injury had been placed in physiological saline, as 10. The change of cloudiness and swelling are respectively in Tables 1 and 2. In Table 1, there show only the results from time 0 hour through two days and from days 7, 14 and 28.

[1] = 1 mM in physiological saline, no injury, 28 days
[2] = 10 mM in physiological saline, no injury, 28 days
[3] = 20 mM in physiological saline, no injury, 28 days
[4] = pig lens in physiological saline

OCC1OC2OCC3O[C@H](O[C@H]4C(O)C(CO)OC(OCC5O[C@H](O[C@@H](C1O)C2O)C(O)C(O)[C@@H]5O)C4O)C(O)C(O)[C@@H]3O (stereo partly drawn) [Test solution, cyclo{→6)-α-D-glucopyranosyl-(1→3)-α-D-glucopyranosyl-(1→6)-α-D-glucopyranosyl-(1→3)-α-D-glucopyranosyl-(1→}]
degree of cloudiness in the lens (relative value) (1 mM in physiological saline, no injury, 1 hour): 11
degree of cloudiness in the lens (relative value) (1 mM in physiological saline, no injury, 2 hours): 12
degree of cloudiness in the lens (relative value) (1 mM in physiological saline, no injury, 6 hours): 11
degree of cloudiness in the lens (relative value) (1 mM in physiological saline, no injury, 24 hours): 12
degree of cloudiness in the lens (relative value) (1 mM in physiological saline, no injury, 2 days): 14
degree of cloudiness in the lens (relative value) (1 mM in physiological saline, no injury, 7 days): 55
degree of cloudiness in the lens (relative value) (1 mM in physiological saline, no injury, 14 days): 61
degree of cloudiness in the lens (relative value) [1]: 85
swelling of the lens [1]: ◯ (swelling was observed)
degree of cloudiness in the lens (relative value) (1 mM in physiological saline, no injury, time 0): 10
degree of cloudiness in the lens (relative value) (10 mM in physiological saline, no injury, 1 hour): 12
degree of cloudiness in the lens (relative value) (10 mM in physiological saline, no injury, 2 hours): 11
degree of cloudiness in the lens (relative value) (10 mM in physiological saline, no injury, 6 hours): 12
degree of cloudiness in the lens (relative value) (10 mM in physiological saline, no injury, 24 hours): 11
degree of cloudiness in the lens (relative value) (10 mM in physiological saline, no injury, 2 days): 13
degree of cloudiness in the lens (relative value) (10 mM in physiological saline, no injury, 7 days): 49
degree of cloudiness in the lens (relative value) (10 mM in physiological saline, no injury, 14 days): 59
degree of cloudiness in the lens (relative value) [2]: 87
swelling of the lens [2]: ◯ (swelling was observed)
degree of cloudiness in the lens (relative value) (10 mM in physiological saline, no injury, time 0): 10
degree of cloudiness in the lens (relative value) (20 mM in physiological saline, no injury, 1 hour): 11
degree of cloudiness in the lens (relative value) (20 mM in physiological saline, no injury, 2 hours): 12
degree of cloudiness in the lens (relative value) (20 mM in physiological saline, no injury, 6 hours): 12
degree of cloudiness in the lens (relative value) (20 mM in physiological saline, no injury, 24 hours): 12
degree of cloudiness in the lens (relative value) (20 mM in physiological saline, no injury, 2 days): 14
degree of cloudiness in the lens (relative value) (20 mM in physiological saline, no injury, 7 days): 51
degree of cloudiness in the lens (relative value) (20 mM in physiological saline, no injury, 14 days): 60
degree of cloudiness in the lens (relative value) [3]: 71
swelling of the lens [3]: ◯ (swelling was observed)
degree of cloudiness in the lens (relative value) (20 mM in physiological saline, no injury, time 0): 10
cloudiness in the lens (in words) (20 mM, 10 mM or 1 mM, lenses with no injury, from seven days): cloudiness was observed throughout the lenses
swelling of the lens (in words) (20 mM, 10 mM or 1 mM, lenses with no injury, until 14 days): No swelling of the lenses was observed
degree of cloudiness in the lens (relative value) (50 mM in physiological saline, no injury, 1 hour): 11
degree of cloudiness in the lens (relative value) (50 mM in physiological saline, no injury, 2 hours): 12
degree of cloudiness in the lens (relative value) (50 mM in physiological saline, no injury, 6 hours): 12
degree of cloudiness in the lens (relative value) (50 mM in physiological saline, no injury, 24 hours): 12
degree of cloudiness in the lens (relative value) (50 mM in physiological saline, no injury, 2 days): 13
degree of cloudiness in the lens (relative value) (50 mM in physiological saline, no injury, 7 days): 15
degree of cloudiness in the lens (relative value) (50 mM in physiological saline, no injury, 14 days): 20
degree of cloudiness in the lens (relative value) (50 mM in physiological saline, no injury, 28 days): 28
degree of cloudiness in the lens (relative value) (50 mM in physiological saline, no injury, time 0): 10
degree of cloudiness in the lens (relative value) (75 mM in physiological saline, no injury, 1 hour): 11
degree of cloudiness in the lens (relative value) (75 mM in physiological saline, no injury, 2 hours): 12
degree of cloudiness in the lens (relative value) (75 mM in physiological saline, no injury, 6 hours): 12
degree of cloudiness in the lens (relative value) (75 mM in physiological saline, no injury, 24 hours): 12
degree of cloudiness in the lens (relative value) (75 mM in physiological saline, no injury, 2 days): 12
degree of cloudiness in the lens (relative value) (75 mM in physiological saline, no injury, 7 days): 14
degree of cloudiness in the lens (relative value) (75 mM in physiological saline, no injury, 14 days): 21
degree of cloudiness in the lens (relative value) (75 mM in physiological saline, no injury, 28 days): 29
degree of cloudiness in the lens (relative value) (75 mM in physiological saline, no injury, time 0): 10
swelling of the lens (in words) (75 mM or 50 mM, lenses with no injury, until 28 days): No swelling was observed
degree of cloudiness in the lens (relative value) (100 mM in physiological saline, injured lens, 1 hour): 10
degree of cloudiness in the lens (relative value) (100 mM in physiological saline, injured lens, 2 hours): 10
degree of cloudiness in the lens (relative value) (100 mM in physiological saline, injured lens, 6 hours): 12
degree of cloudiness in the lens (relative value) (100 mM in physiological saline, injured lens, 24 hours): 12
degree of cloudiness in the lens (relative value) (100 mM in physiological saline, injured lens, 2 days): 12
degree of cloudiness in the lens (relative value) (100 mM in physiological saline, injured lens, time 0): 10
degree of cloudiness in the lens (relative value) (100 mM in physiological saline, no injury, 1 hour): 13
degree of cloudiness in the lens (relative value) (100 mM in physiological saline, no injury, 2 hours): 12
degree of cloudiness in the lens (relative value) (100 mM in physiological saline, no injury, 6 hours): 12
degree of cloudiness in the lens (relative value) (100 mM in physiological saline, no injury, 24 hours): 12
degree of cloudiness in the lens (relative value) (100 mM in physiological saline, no injury, 2 days): 11
degree of cloudiness in the lens (relative value) (100 mM in physiological saline, no injury, 7 days): 12
degree of cloudiness in the lens (relative value) (100 mM in physiological saline, no injury, 14 days): 15
degree of cloudiness in the lens (relative value) (100 mM in physiological saline, no injury, 28 days): 15
degree of cloudiness in the lens (relative value) (100 mM in physiological saline, no injury, time 0): 10
swelling of the lens (in words) (100 mM, injured lens, 2 days after initiating observation): the swelling of the lens was not observed
cloudiness in the lens (in words) (100 mM, injured lens, after 2 days): partial cloudiness only at the injured site
swelling of the lens (in words) (100 mM, lenses with no injury, on 28 days): no swelling
concentration with a satisfactory swelling-inhibitory-effect on the lens [4]: ≥ 1 mM
concentration with an action of inhibiting the swelling and cloudiness in the lens and maintaining transparency [4]: ≥ 50 mM
